The values that follow come from article PMC10937556, “Phenolic phytochemistry, in vitro, in silico, in vivo, and mechanistic anti-inflammatory and antioxidant evaluations of Habenaria digitata” (Frontiers in Pharmacology, 2024).

The assay relates to CAT. Description: In vivo antioxidant: CAT activity. Also noted: species or system mice. The following applies: high tested dose. As to the method: Twenty male albino mice were distributed into four groups, each with five mice. The control group (group 1) received 0.4 mL of distilled water. The compound was given in doses of 2.5, 5, and 10 mg/kg to groups 2, 3, and 4, respectively. Throughout the trial, the mice were given a daily dose for 3 weeks and were evaluated for alterations, other symptoms of toxicity, and death on a daily basis. […]
[…] […] The reaction was started by adding 0.1 mL of fresh 30 mM H2O2, and the decomposition rate of H2O2 was measured on a spectrophotometer at 240 nm for 5 min. Catalase activity was determined using a molar extinction coefficient of 0.041 mM^−1 cm^−1.

With `Cc1cnc(O)nc1O` [Compound 1, 5-methylpyrimidine-24,4-diol], the CAT activity is, setting by setting: (brain) 97 U/mL; (heart) 143.02 U/mg protein; (liver) 139.0 U/mg protein.
